Source: publication PMC10564737, “Structure-based design of a phosphotyrosine-masked covalent ligand targeting the E3 ligase SOCS2” (Nature Communications, 2023)
Several values for one entry are separate records, joined by “and”; a condition that tells them apart may be missing. Identical values can stand only once.

Legend:
Assay in all cases: Intact ESI-MS of recombinant protein, covalent modification
Type in all cases: biochemical
CISH-EloBC = molecular target: T1, CISH-EloBC (Homo sapiens, UniProt Q9NSE2, DEL174-202); details: CISH + MN551 (1:1, 40 µM), 0 min
T1 construct: CISH (66-258 Δ174-202) was codon-optimized for bacterial expression; GST (from pGEX-6P-1); made in house; host or cells: E. coli BL21(DE3)
Source text: (§1) Having established the specificity of MN551 for covalent modification of Cys111 of SOCS2, we turned our attention to the intra-SOCS family selectivity of MN551. We performed a multiple sequence alignment of the SH2 domains from all the SOCS proteins (Fig. 3a). The Cys111 targeted by MN551 for covalency is part of the EF loop in SOCS2. Beyond SOCS2, other family members SOCS4, SOCS5, SOCS7, and CISH also have a cysteine in the same loop (Fig. 3a), and given the expected conserved ligand binding mode, they could all be engaged by MN551. To verify our hypothesis, we incubated recombinant SOCS/EloBC complexes of SOCS4 (SBC4), SOCS6 (SBC6), and CISH with MN551 for 2 h and analyzed for covalent modification of the SOCS proteins by intact ESI-MS (Fig. 3b–d). These proteins were chosen as SOCS4 and SOCS6 are already structurally well characterized, and because SOCS4 Cys350, and CISH Cys144 are in a similar position as Cys111 in SOCS2, whereas SOCS6 is lacking cysteines in the EF loop[36]–[38]. […] Although SOCS6 lacks a cysteine in its EF loop, Cys471 from the BG loop is predicted to be in close proximity to the chloroacetamide functional group of MN551, as evident from the superposed SOCS2 and SOCS6 structures, potentially explaining the modification, albeit minimal (Fig. 3f). Structure-guided improvements upon this observed MN551-SOCS6 covalency could expedite future attempts in development of covalent binders for SOCS6. In the absence of a PDB structure for CISH, we overlayed SOCS2-SH2 domain with an AlphaFold model generated for the CISH SH2 domain with deletions in the N-terminus and the PEST sequence (66-258, Δ174-202, Fig. 3g). Amongst all the SOCSs, CISH has the highest sequence identity to SOCS2-SH2 and the presence of a conserved Cys144 in the EF loop together likely explain its complete covalent modification by MN551.
(§2) SBC2 protein (40 µM), SBC2 C111S, SBC4, SBC6, or CISH were incubated with an equimolar concentration of MN551 in 50 mM Tris, pH 8.0, 50 mM NaCl, 1 mM TCEP. At defined time points 20 µl samples were removed and the protein precipitated by the addition of 80 µl methanol. The precipitated protein was pelleted by centrifugation, washed with 500 µl methanol, and resuspended in an aqueous solution of 15% acetonitrile and 1% TFA. Samples were separated by HPLC on a C3 column using a 10–75% gradient of acetonitrile and analyzed using an Agilent 6130 quadrupole MS. Spectra were deconvoluted and integrated using Agilent LC/MSD ChemStation.

SOCS4-EloBC (SBC4) = molecular target: T2, SOCS4-EloBC (SBC4) (Homo sapiens, UniProt Q8WXH5); details: SOCS4 + MN551 (1:1, 40 µM), 0 min
T2 construct: SOCS4 (amino acids 274-437); made in house; E. coli implied
Source text: as §1, §2

SOCS6-EloBC (SBC6) = molecular target: T3, SOCS6-EloBC (SBC6) (Homo sapiens, UniProt O14544); details: SOCS6 + MN551 (1:1, 40 µM)
T3 construct: SOCS6 (amino acids 353-535); His6-GST (N, cleaved yes); made in house; E. coli implied
Source text: as §1, §2

SOCS2 (SBC2) = molecular target: T4, SOCS2 (SBC2) (Homo sapiens, UniProt O14508); details: SOCS2 WT + MN551 (1:1, 40 µM)
T4 construct: SOCS2 (amino acids 32–198); His6 (N, cleaved yes); made in house; host or cells: E. coli BL21(DE3)

O=C(CCl)Nc1cccc(CNC(=O)[C@H](Cc2ccc(OP(=O)(O)O)cc2)NC(=O)Cc2ccc(F)cc2)c1 [MN551]
% modified (CISH-EloBC): 0.0% | % modified (SOCS4-EloBC (SBC4)): 0.0% | % double-modified (SOCS6-EloBC (SBC6); 0 min): 0.0% | % modified (single adduct) (SOCS6-EloBC (SBC6); 0 min): 0.0% | % double-modified (SOCS6-EloBC (SBC6); 120 min): 2.6% | % modified (single adduct) (SOCS6-EloBC (SBC6); 120 min): 18% and 18.3% | % modified (SOCS2 (SBC2); t = 0 min): 0.0% | % modified (SOCS2 (SBC2); t = 5 min): 12.6% | % modified (SOCS2 (SBC2); t = 10 min): 18.9% | % modified (SOCS2 (SBC2); t = 20 min): 41.4% | % modified (SOCS2 (SBC2); t = 40 min): 73.7% | % modified (SOCS2 (SBC2); t = 60 min): 88.0% | % modified (SOCS2 (SBC2); t = 90 min): 100.0% | % modified (SOCS2 (SBC2); t = 120 min): 100.0%
